Results reported in patent US11420947B2, “(S)-n-hydroxy-2-(2-(4-methoxyphenyl)butanamido)thiazole-5-carboxamide and pharmaceutically acceptable salts thereof” (TRANSLATIONAL DRUG DEVELOPMENT, LLC, priority 2018, dated 2022).

Experiments:
[1] = test system: SKUT-1; assay: CellTiter-Glo cell viability assay; type: cell-based; conditions: Homo sapiens, SK-UT-1; SKUT-1, ENDOMETRIAL, Uterine, 72 hours
Protocol: (§1) Cell viability in the presence of varying concentrations of the above listed compounds at different time points was used to assess cytotoxicity and the effect of the compounds on cell proliferation.
(§2) Cell viability was measured by the CellTiter-Glo® cell viability assay from Promega (Madison, Wis.). The CellTiter-Glo® Luminescent Cell Viability Assay is a homogeneous method to determine the number of viable cells in culture based on quantitation of the ATP present, which signals the presence of metabolically active cells. Following treatment, CellTiter-Glo® is added to treatment wells and incubated at 37° C. luminescence values were measured at using a Molecular Devices Spectramax microplate reader
(§3) Cells were grown to 70% confluency, trypsinized, counted, and seeded in 96 well flat-bottom plates at a final concentration of 2.5×10^3-5×10^3 cells/well (Day 0). Cells were allowed to incubate in growth media for 24 hours. Treatment with the test agents or standard agents began on Day 1 and continued for 72 hours. At the 72-hour timepoint, treatment containing media was removed. Viable cell numbers are quantified by the CellTiter-Glo® cell viability assay as described above. Results from these studies were used to calculate an IC50 value (concentration of drug that inhibits cell growth by 50 percent of control) for each compound.
(§4) For single agent and combination studies, data from each experiment was collected and expressed as % Cell Growth using the following calculation: % Cell Growth=(ftest/fvehicle)×100
(§5) Where test is the fluorescence of the tested sample, and fvehicle is the fluorescence of the vehicle in which the drug is dissolved. Dose response graphs and IC50 values were generated using Prism 6 software (GraphPad) using the following equation: Y=(Top-Bottom)/(1+10^((logIC^50^-X)-HillSlope))

[2] = test system: BxPC-3; assay: CellTiter-Glo cell viability assay; type: cell-based; conditions: Homo sapiens; BxPC-3, PANCREAS, Pancreatic, 72 hours
Protocol: as §1, §2, §3, §4, §5

[3] = test system: SUM149PT; assay: CellTiter-Glo cell viability assay; type: cell-based; conditions: Homo sapiens; SUM149PT, BREAST, IBC, 72 hours
Protocol: as §1, §2, §3, §4, §5

[4] = test system: MDA-MB-468; assay: CellTiter-Glo cell viability assay; type: cell-based; conditions: Homo sapiens; MDA-MB-468, BREAST, TNBC, 72 hours
Protocol: as §1, §2, §3, §4, §5

[5] = test system: Cal-27; assay: CellTiter-Glo cell viability assay; type: cell-based; conditions: Homo sapiens; Cal-27, H&N SQUAMOUS CELL, Tongue, 72 hours
Protocol: as §1, §2, §3, §4, §5

[6] = test system: SN12CCP; assay: CellTiter-Glo cell viability assay; type: cell-based; conditions: SN12CCP, RENAL, RCC, 72 hours
Protocol: as §1, §2, §3, §4, §5

[7] = test system: Hec-1A; assay: CellTiter-Glo cell viability assay; type: cell-based; conditions: Homo sapiens; Hec-1A, ENDOMETRIAL, 72 hours
Protocol: as §1, §2, §3, §4, §5

[8] = test system: Hs852T; assay: CellTiter-Glo cell viability assay; type: cell-based; conditions: Hs852T, MELANOMA, 72 hours
Protocol: as §1, §2, §3, §4, §5

[9] = test system: Nalm-6; assay: CellTiter-Glo cell viability assay; type: cell-based; conditions: Homo sapiens; Nalm-6, HEMATOPIETIC, ALL, 72 hours
Protocol: as §1, §2, §3, §4, §5

[10] = test system: SNU-1; assay: CellTiter-Glo cell viability assay; type: cell-based; conditions: Homo sapiens, SNU1; SNU-1, GASTRIC, Carcinoma, 72 hours
Protocol: as §1, §2, §3, §4, §5

[11] = test system: G402; assay: CellTiter-Glo cell viability assay; type: cell-based; conditions: Homo sapiens, G-402; G402, RENAL, Renal leiomyoblastoma, 72 hours
Protocol: as §1, §2, §3, §4, §5

[12] = test system: DOHH-2; assay: CellTiter-Glo cell viability assay; type: cell-based; conditions: Homo sapiens; DOHH-2, HEMATOPIETIC, Lymphoma, 72 hours
Protocol: as §1, §2, §3, §4, §5

[13] = test system: H358; assay: CellTiter-Glo cell viability assay; type: cell-based; conditions: Homo sapiens, NCI-H358; H358, LUNG, NSCLC, 72 hours
Protocol: as §1, §2, §3, §4, §5

[14] = test system: KG-1; assay: CellTiter-Glo cell viability assay; type: cell-based; conditions: Homo sapiens; KG-1, HEMATOPIETIC, AML, 72 hours
Protocol: as §1, §2, §3, §4, §5

[15] = test system: A549; assay: CellTiter-Glo cell viability assay; type: cell-based; conditions: Homo sapiens; A549, LUNG, NSCLC, 72 hours
Protocol: as §1, §2, §3, §4, §5

[16] = test system: HepG2; assay: CellTiter-Glo cell viability assay; type: cell-based; conditions: Homo sapiens; HepG2, LIVER, HCC, 72 hours
Protocol: as §1, §2, §3, §4, §5

[17] = test system: HCC1806; assay: CellTiter-Glo cell viability assay; type: cell-based; conditions: Homo sapiens; HCC1806, BREAST, acantholytic squamous cell carcinoma, 72 hours
Protocol: as §1, §2, §3, §4, §5

[18] = test system: LK-2; assay: CellTiter-Glo cell viability assay; type: cell-based; conditions: Homo sapiens; LK-2, LUNG, Carcinoma, 72 hours
Protocol: as §1, §2, §3, §4, §5

[19] = test system: MDA-MB-231; assay: CellTiter-Glo cell viability assay; type: cell-based; conditions: Homo sapiens; MDA-MB-231, BREAST, TNBC, 72 hours
Protocol: as §1, §2, §3, §4, §5

[20] = test system: NCI-H209; assay: CellTiter-Glo cell viability assay; type: cell-based; conditions: Homo sapiens; NCI-H209, LUNG, Carcinoma, 72 hours
Protocol: as §1, §2, §3, §4, §5

[21] = test system: ACHN; assay: CellTiter-Glo cell viability assay; type: cell-based; conditions: Homo sapiens; ACHN, RENAL, RCC, 72 hours
Protocol: as §1, §2, §3, §4, §5

[22] = Pharmacokinetics studies in mice; type: in vivo; conditions: PO-5 mg/kg
Text: Volume of distribution is one of the most important pharmacokinetic properties of a drug candidate and for an anticancer drug can result in increased drug distribution to the tumor.

CC[C@@H](C(=O)Nc1ncc(C(=O)NO)s1)c1ccc(OC)cc1 [#1b, (R)—N-hydroxy-2-(2-(4-methoxyphenyl)butanamido)thiazole-5-carboxamide]
IC50 [1]: 1260 nM
IC50 [2]: 1100 nM
IC50 [3]: 612 nM
IC50 [4]: 550 nM
IC50 [5]: 465 nM
IC50 [6]: 410 nM
IC50 [7]: 309 nM
IC50 [8]: 1240 nM
IC50 [9]: 91 nM
IC50 [10]: 1400 nM
IC50 [11]: 501 nM
IC50 [12]: 135 nM
IC50 [13]: 558 nM
IC50 [14]: 148 nM
IC50 [15]: 398 nM
IC50 [16]: 631 nM
IC50 [17]: 465 nM
IC50 [18]: 398 nM
IC50 [19]: 646 nM
IC50 [20]: 251 nM
IC50 [21]: 736 nM
AUC % Extrap [22]: 1.02%
CI/Fobs [22]: 912 mL/min/kg
AUC(0-inf) ([22]; mouse, in vivo): 91.4 ng·h/mL
AUC(0-t) ([22]; mouse, in vivo): 90.4 ng·h/mL
Cmax ([22]; mouse, in vivo): 20.9 ng/mL
Tmax ([22]; mouse, in vivo): 1 h
bioavailability ([22]; mouse, in vivo): 16.2%
half-life ([22]; mouse, in vivo): 3.6 h
Vd/F ([22]; mouse, in vivo, read-out: Vz/Fobs): 284 L/kg
